{
  "source": "patent US12569437B2",
  "about": "“Disease-site-specific liposomal formulation” (Osaka University, priority 2017, dated 2026)",
  "key": {"[1]": {"assay": "Body weight and heart weight in rat myocardial ischemia model", "type": "in vivo", "protocol": "Dissection was performed after the completion of the echocardiography at day 14 after the administration of the test substance. For dissection, all of the blood was collected from the abdominal aorta, and the rats were euthanized under isoflurane anesthesia; thereafter, the heart was removed and weighed. After measuring the heart weight, the infarct area, including the left and right ventricles, was divided into three parts along the short axis."}, "[2]": {"system": "spontaneous dilated cardiomyopathy (J2N-k) hamster model", "assay": "Left ventricular wall thickness and area in short-axis sections of removed heart", "type": "in vivo", "conditions": "week 8; for Left ventricle wall thickness (mm) Anterior / Left ventricle wall thickness (mm) Lateral / Left ventricle wall thickness (mm) Posterior / Left ventricle wall thickness (mm) Septum: middle section", "protocol": "(§1) Dissection was performed as follows. After all of the blood was collected from the abdominal aorta, and the hamsters were euthanized under isoflurane anesthesia, the heart and lungs were removed and weighed. After the weights thereof were measured, the removed parts, including the left and right ventricles, were divided into three parts; i.e., apical, middle, and basal parts, at intervals of about 2 mm along the short axis.\nWhen removed, the heart, including the left and right ventricles, was divided into three parts; i.e., apical, middle, and basal parts, at intervals of about 2 mm along the short axis. Among them, one section of the middle part was photographed, and the wall thickness at the anterior, lateral, posterior, and septum parts, and the left ventricular area were measured using image-editing software. For the wall thickness of the left ventricle, image-editing software was used, the number of pixels in the scale area of 1 mm^2 on the photograph was obtained, and the outer diameter and inner diameter of the entire left ventricle wall were traced to obtain each number of pixels to thus calculate the left ventricular area by ((the number of pixels of the outer diameter−the number of pixels of the inner diameter)/1 mm^2). Thereafter, the wall thickness of each portion was measured.\nThe section was divided into three parts; i.e., apical, middle, and basal areas, at intervals of about 2 mm. Thereafter, using one section on the middle side, the wall thickness at the anterior, lateral, posterior, and septum parts, and the left ventricular area were measured. For the wall thickness of the left ventricle, image-editing software was used, the number of pixels in the scale area of 1 mm^2 on the photograph was obtained, and the outer diameter and inner diameter of the entire left ventricle wall were traced to obtain each number of pixels to thus calculate the left ventricular wall area by ((the number of pixels of the outer diameter−the number of pixels of the inner diameter)/1 mm^2). Thereafter, the wall thickness of each portion was measured."}, "[3]": {"system": "BLM pulmonary fibrosis model mice", "assay": "Survival rate in BLM pulmonary fibrosis model mice", "type": "in vivo", "conditions": "day 6 to 28 after BLM", "protocol": "C57BL/6NCr female mice (7 weeks old) were anesthetized with sodium pentobarbital, and then intratracheally (intrapulmonary) administered with 20 μL of a bleomycin hydrochloride aqueous solution (BLM) twice (40 μL in total per animal). In a normal group (Normal), vehicle (physiological saline) was similarly intratracheally administered.\nFrom 6 days to 28 days after the BLM administration, the test substance was administered to compare the survival rates. As the test substances, compound (A) (ONO-1301) was repeatedly orally administration twice daily, compound (A) (ONO-1301) was intravenously administered once weekly, and compound (A) (ONO-1301) was intratracheally administered once weekly. Further, Formulation 25 (ONO-1301Lipo) was intravenously administered once weekly, and Formulation 25 (ONO-1301Lipo) was intratracheally administered once weekly to analyze the DDS effect of Formulation 25 (ONO-1301Lipo) by comparing the survival rates.\nFrom 6 days after the preparation of the lung injury model, the vehicle and compound (A) (3 mg/kg) were repeatedly orally administered twice daily for 23 days (the administration interval between morning and afternoon was 8 hours or more).\nThe administration was performed 6 days after the preparation of the lung injury model; after that, tail vein intravenous administration was performed once weekly (4 times in total, i.e., 6, 13, 20, and 27 or 28 days after the preparation of the model).\nThe administration was performed 6 days after the preparation of the lung injury model; after that, intratracheal administration was performed once weekly (4 times in total, i.e., 6, 13, 20, and 27 or 28 days after the preparation of the model). In normal Group 9 (Normal), physiological saline was administered in a similar manner."}, "[4]": {"assay": "Body weight and heart and lung weights in J2N-k hamsters", "type": "in vivo, hamster", "conditions": "for Body weight (g) at dissection: week 8", "protocol": "as §1\nTables 26 and 27 show the body weight change at the time of grouping and at the time of dissection, and the weights of heart and lung at the time of dissection."}, "[5]": {"system": "rat monocrotaline (MCT)-induced severe heart failure (pulmonary hypertension) model", "assay": "Survival rate in rat monocrotaline-induced pulmonary hypertension model", "type": "in vivo", "conditions": "42 days after MCT", "text": "The produced Formulation 21 (ONO-1301Lipo formulation) as a test substance was intermittently administered intravenously once weekly to a rat monocrotaline (MCT)-induced severe heart failure (pulmonary hypertension) model from day 7 of the MCT administration, and the survival rate was compared with a group in which compound (A) (ONO-1301) was repeatedly orally administered; a group in which compound (A) was intermittently administered intravenously once weekly; and, as a positive control, a group in which an ET-1 antagonist (bosentan) was orally administered. In the control group, physiological saline (vehicle) was administered once weekly by intravenous administration.\nFor animals, Slc: Wistar male rats, 5 weeks old at the start of the test, and 66.4 to 90.8 g at arrival (Japan SLC, Inc.) were used. Monocrotaline (hereinafter referred to as “MCT”), lot No.: SLBG1999V (Sigma-Aldrich Corporation), was administered once subcutaneously at the back of the rats at a dose of 60 mg/kg. Six days after the MCT administration, the animals were divided into groups according to the weight stratification assignment method (Table 19)."}, "[6]": {"conditions": "3.0 mg/kg intravenous once/2 weeks"}},
  "note": "Marks after values point to notes of the source that are not given here.",
  "data": [
    {"smiles": "O=C(O)COc1cccc2c1CCC=C2CCO/N=C(\\c1ccccc1)c1cccnc1", "note": "[Compound (A), ({5-[2-({[(1E)-phenyl(pyridin-3-yl)methylene]amino}oxy)ethyl]-7,8-dihydronaphthalen-1-yl}oxy)acetic acid]", "values": [
      {"measurement": "Body weight (g) At dissection", "setting": "[1]; 3.0 mg/kg single i.v., day 14", "value": "406.7 ± 37.4", "unit": "g"},
      {"measurement": "Body weight (g) Before drug administration", "setting": "[1]; group 3.0 mg/kg single i.v.", "value": "325.1 ± 22.3", "unit": "g"},
      {"measurement": "Body weight (g) Before preparation of AMI", "setting": "[1]; group 3.0 mg/kg single i.v.", "value": "339.7 ± 13.6", "unit": "g"},
      {"measurement": "Left ventricular area (Middle part) (mm^2)", "setting": "[2]; 3.0 mg/kg i.v. once/2 weeks", "value": "23.9 ± 4.5", "unit": "mm^2"},
      {"measurement": "Left ventricle wall thickness (mm) Anterior", "setting": "[2]; [6]", "value": "1.1 ± 0.6", "unit": "mm"},
      {"measurement": "Left ventricle wall thickness (mm) Lateral", "setting": "[2]; [6]", "value": "1.2 ± 0.3", "unit": "mm"},
      {"measurement": "Left ventricle wall thickness (mm) Posterior", "setting": "[2]; [6]", "value": "1.2 ± 0.2", "unit": "mm"},
      {"measurement": "Left ventricle wall thickness (mm) Septum", "setting": "[2]; [6]", "value": "1.0 ± 0.3", "unit": "mm"},
      {"measurement": "Left ventricle wall thickness (mm) Anterior", "setting": "[2]; 3.0 mg/kg p.o. twice/day", "value": "1.4 ± 0.5", "unit": "mm"},
      {"measurement": "Left ventricle wall thickness (mm) Lateral", "setting": "[2]; 3.0 mg/kg p.o. twice/day", "value": "1.5 ± 0.2", "unit": "mm"},
      {"measurement": "Left ventricle wall thickness (mm) Posterior", "setting": "[2]; 3.0 mg/kg p.o. twice/day", "value": "1.2 ± 0.4", "unit": "mm"},
      {"measurement": "Left ventricle wall thickness (mm) Septum", "setting": "[2]; 3.0 mg/kg p.o. twice/day", "value": "1.5 ± 0.3", "unit": "mm"},
      {"measurement": "Left ventricular area (Middle part) (mm^2)", "setting": "[2]; 3.0 mg/kg p.o. twice/day", "value": "26.4 ± 4.3", "unit": "mm^2"},
      {"measurement": "survival rate", "setting": "[3]; intratracheal 1 mg/kg once/week", "value": 20, "unit": "%"},
      {"measurement": "survival rate", "setting": "[3]; intravenous 3 mg/kg once/week", "value": 40, "unit": "%"},
      {"measurement": "survival rate", "setting": "[3]; oral 3 mg/kg twice/day", "value": 60, "unit": "%"},
      {"measurement": "Body weight (g) at dissection", "setting": "[4]; 3.0 mg/kg i.v. once/2 weeks", "value": "144.4 ± 13.3", "unit": "g"},
      {"measurement": "Body weight (g) at dissection", "setting": "[4]; 3.0 mg/kg p.o. twice/day", "value": "128.6 ± 3.0", "unit": "g"},
      {"measurement": "Body weight (g) Before drug administration", "setting": "[4]; group 3.0 mg/kg i.v. once/2 weeks", "value": "128.7 ± 10.4", "unit": "g"},
      {"measurement": "Body weight (g) Before drug administration", "setting": "[4]; group 3.0 mg/kg p.o. twice/day", "value": "118.8 ± 9.6", "unit": "g"},
      {"measurement": "Survival rate (%)", "setting": "[5]; intravenous 1 mg/kg/week from day 7", "value": 20, "unit": "%"},
      {"measurement": "Survival rate (%)", "setting": "[5]; oral 3 mg/kg × twice/day from day 7", "value": "50* %"}
    ]}
  ]
}
